Data: patent US6069132A, “Phosphazole compounds” (priority 1997, dated 2000)
In brackets after ≈: the same amount, converted by molar mass. Entries after “also recorded” stand apart in the source; their conditions may differ. Read-outs that look alike come from different tables or passages of the source.

How the values were obtained:
HCMV (Town strain) = experiment: HCMV plaque reduction (CPE) assay in MRC-5 cells; type: cell-based, human cytomegalovirus
Protocol: The adenine analog phosphazole (compound T70241) was assayed for antiviral activity using a HCMV plaque reduction assay, in accordance with known methods such as that described in U.S. Pat. No. 5,446,045.
Cell Culture. Vero (African Green Monkey kidney cells) and MRC-5 (diploid Human Embryonic Lung fibroblasts) cells were obtained from the American Type Culture Collection (ATCC) and were grown in minimal essential medium (MEM) with Earl's salts and glutamine (GIBCO BRL, Life Technologies, Inc.) with 10% heat inactivated fetal bovine serum (GIBCO BRL) and penicillin (100 μg/mL)/streptomycin (100 μg/mL).
CMV Cytopathic Effect (CPE) Assay. Assays were performed essentially as described by Lewis et al. (111), which report is incorporated herein by reference. MRC-5 cells (100,000 cells/well) were seeded in 24-well plates overnight. Medium was then removed and wells were rinsed once with 250 μL of 2% FCS-MEM before adding 40-50 pfu of HCMV (Town strain) to each well. After 2 hours of virus adsorption, the medium was removed and the cells were rinsed once with 2% FCS-MEM. Varying concentrations of the phosphazole compound in the culture medium (1 mL) was then added to appropriate wells and plates were incubated for 5-6 days at 37° C. in a humidified 5% CO2 atmosphere. Each concentration was tested in duplicate wells.
The extent of the plaque reduction was quantitated by removing the media and adding 200 μL of 0.1% crystal violet in 20% methanol to all wells. The crystal violet was then removed after 10 min staining at room temperature by rinsing in the sink with tap water and the plates dried overnight. The plaques were then counted using a Nikon inverted microscope.

[1] = Cytotoxicity on growing THP-1 cells (MTS assay); type: cell-based, human; conditions: human, thp-1 cells; Table 2; drug dose required to inhibit logphase growing cells by 50%; read-out: TC50 Growing THP-1
Protocol: (§1) Cytotoxicity Analysis. The cytotoxicity of the compounds were assayed using the CellTiter 96™ Aqueous Non-Radioactive Cell Proliferation (MTS) Assay kit obtained from Promega (Madison, Wis.) following the instructions provided by the supplier. The viable cell number was determined by trypan blue staining and cells (THP-1) were resuspended in PRMI supplemented with 10% FBS (GIBCO). Eighty microliters of cell suspension (1.7×10^4cells/well) was dispensed onto a 96-well microtiter plates. At this time 20 μL of drug (or control) was added to appropriate wells. Each concentration was assayed in quadruplicate. The plates were incubated at 37° C. in a humidified 5% CO2 atmosphere for 4 days and MTS assay […] for each concentration and the data obtained was used to calculate TC50 (the concentration of the compound necessary to inhibit the cell growth by 50%) for each compound.

[2] = Viability of PBMCs exposed to test compound; type: cell-based, human; conditions: human, pbmcs, 48 h, +LPS, read-out: % Viable Cells
PBMCs = experiment: Viability of PBMCs exposed to test compound; type: cell-based, human; conditions: 48 hours of exposure
TNFα = experiment: Inhibition of TNFα in LPS-stimulated PBMCs; type: cell-based, human; conditions: for inhibition at 10 µg/mL / inhibition at 50 µg/mL / inhibition at 100 µg/mL / inhibition at 250 µg/mL: Homo sapiens, PBMC; for inhibition at 10 µg/mL: 10 μg/ml; for inhibition at 50 µg/mL: 50 μg/ml; for inhibition at 100 µg/mL: 100 μg/ml; for inhibition at 250 µg/mL: 250 μg/ml
Protocol: Primary cell assays. Primary human peripheral blood mononuclear cells (PBMCS) were isolated as described by Ojwang et al. (114). Isolated monocytes were added to 24-well cluster plates (Costar, Cambridge, Mass.) at a concentration of 1×10^5 viable cells per well. Culture medium or test material dilutions in culture medium were added to the wells, the plates were then incubated at 37° C. for one hour. […] The plates were incubated an additional 4, 24 or 48 hours. The supernatant fluids were then harvested and centrifuged to pellet cells or cellular debris, and the supernatant fluids were stored at -70° C. until they were assayed for the presence of TNFα using a commercially available ELISA kit, such as that described in Example 46.

MRC-5 cells = experiment: Cytotoxicity on growing MRC-5 cells (MTS); type: cell-based, human
[3] = tested on: adenosine deaminase (ADA); experiment: Enzymatic hydrolysis by adenosine deaminase; type: in vitro ADME, calf
Protocol: Adenosine deaminase (ADA, adenosine aminohydrolase, EC 3.5.4.4, SIGMA) from calf intestinal mucosa was prepared to give a stock of 1 mg/mL (250-280 units/mL) in pH 7.4, 0.01 M phosphate buffer. The relative rates of hydrolysis of selected compounds by ADA and characterization of the products was carried as follows. […] Fifty-microliter aliquots were taken at time intervals and hydrolysis was quenched by mixing with 0.45 mL of distilled water and then the diluted sample was heated at 95° C. for 6 min to ensure enxyme deactivation. The decrease in substrate concentration and the formation of the products was followed over time by UV-spectroscopic analysis. Adenosine was used as a control in this experiment and one unit is defined as the amount of ADA that hydrolyzes 1.0 μmol of adenosine/min at 25° C.

THP-1 cells = experiment: Cytotoxicity on growing THP-1 cells (MTS assay); type: cell-based, human; conditions: 4 days (FIG. 1A)
Protocol: as §1

## CCCCCn1cpc2ncnc(N)c21 (stereo not drawn) [T70254, 7-Amino-1-(n-pentyl)-1,3-azaphospholo[4,5-d]pyrimidine]
HCMV (Town strain); Human betaherpesvirus 5, MRC5, read-out: IC50 HCMV
  IC50: > 50 µg/mL
[1]
  CC50 at 96 h: 14.7 µg/mL (≈ 66.2 µM)

## Nc1ncnc2pc[nH]c12 (stereo not drawn) [T70241, 7-amino-1H-1,3-azaphospholo[4,5-d]pyrimidine]
[2]; 10 μg/ml
  viability at 48 h: 104%
[2]; 50 μg/ml
  viability at 48 h: 83%
[2]; 100 μg/ml
  viability at 48 h: 94%
[2]; 250 μg/ml
  viability at 48 h: 88%
PBMCs
  PBMC viability / toxicity: cell viability was not affected; also recorded: minimal
HCMV (Town strain); 0.01-10 μg/mL
  inhibition of HCMV virus production: nearly logrithmic increase in inhibition of virus production
HCMV (Town strain); Human betaherpesvirus 5, MRC5, read-out: 50% inhibitory concentration (IC50), HCMV induced plaques
  IC50: ~8.25 µg/mL (≈ 54.2 µM)
HCMV (Town strain); Human betaherpesvirus 5, MRC5, Table 4, read-out: IC50 HCMV
  IC50: 8.08 µg/mL (≈ 53.1 µM)
TNFα; 48 hours post-LPS induction
  TNFα production in PBMCs: significantly reduce the levels of TNFα production in the PBMCs
TNFα; 4 h
  inhibition at 10 µg/mL: 0%
  inhibition at 50 µg/mL: 50%
  inhibition at 100 µg/mL: 76%
  inhibition at 250 µg/mL: 76%
TNFα; 24 h
  inhibition at 10 µg/mL: -3%
  inhibition at 50 µg/mL: 58%
  inhibition at 100 µg/mL: 81%
  inhibition at 250 µg/mL: 84%
TNFα; 48 h
  inhibition at 10 µg/mL: -9%
  inhibition at 50 µg/mL: 51%
  inhibition at 100 µg/mL: 79%
  inhibition at 250 µg/mL: 82%
MRC-5 cells; FIG. 9A, four day period
  toxic effect on growing MRC-5 cells: slight toxic effect on growing MRC-5 cells
MRC-5 cells; Table 4, 50% inhibition of logphase growing cells, 5760 min
  TC50 Growing MRC-5: > 50 µg/mL
[3]
  ADA substrate: not a substrate for ADA
[3]; up to 5 hours in presence of ADA
  hydrolysis by ADA: UV spectra: remained unchanged
[1]
  CC50 at 96 h: > 1000 µg/mL
THP-1 cells; higher concentrations
  effect on THP-1 growth: stimulates THP-1 growth at higher concentrations
THP-1 cells; up to 1 mg/mL
  toxic effect on THP-1 cells: no toxic effect on the THP-1 cells
